The record followed here is patent publication US10670605B2, “Cysteine reactive probes and uses thereof” (The Scripps Research Institute, priority 2015, dated 2020).

Each structure is given as a SMILES string.

Common to all, as to test: Competitive isoTOP-ABPP in situ (fragment-treated cells)
Common to all, as to assay type: cell-based

Experiment [1] deals with T1, cysteines in MDA-MB-231 and Ramos cells (Homo sapiens, UniProt P42765).
T1 sequence (P42765 1-397): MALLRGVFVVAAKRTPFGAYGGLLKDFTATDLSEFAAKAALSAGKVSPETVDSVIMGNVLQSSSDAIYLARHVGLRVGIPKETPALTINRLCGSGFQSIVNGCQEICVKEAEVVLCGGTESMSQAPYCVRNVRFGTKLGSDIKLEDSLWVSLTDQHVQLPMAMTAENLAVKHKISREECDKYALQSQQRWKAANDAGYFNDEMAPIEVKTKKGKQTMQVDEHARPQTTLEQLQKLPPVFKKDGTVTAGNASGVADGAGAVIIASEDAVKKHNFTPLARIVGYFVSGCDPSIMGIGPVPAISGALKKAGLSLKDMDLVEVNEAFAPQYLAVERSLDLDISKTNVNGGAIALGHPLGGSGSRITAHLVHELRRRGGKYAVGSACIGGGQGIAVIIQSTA

For experiment [2], the target named is T2, cysteines in MDA-MB-231 and Ramos cells (Homo sapiens, UniProt P24752).
T2 sequence (P24752 34-427): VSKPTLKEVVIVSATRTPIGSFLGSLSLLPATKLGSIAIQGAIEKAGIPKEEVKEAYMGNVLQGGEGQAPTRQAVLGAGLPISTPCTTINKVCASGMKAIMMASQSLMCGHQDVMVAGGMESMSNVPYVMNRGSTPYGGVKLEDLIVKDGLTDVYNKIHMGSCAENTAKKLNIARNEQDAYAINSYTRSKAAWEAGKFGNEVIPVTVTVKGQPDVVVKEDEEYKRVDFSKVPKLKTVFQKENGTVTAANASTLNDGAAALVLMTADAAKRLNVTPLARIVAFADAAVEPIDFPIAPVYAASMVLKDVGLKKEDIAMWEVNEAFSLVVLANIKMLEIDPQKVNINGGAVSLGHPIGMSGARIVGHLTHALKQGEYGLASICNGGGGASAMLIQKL

In experiment [3] the target is T3, cysteines in MDA-MB-231 and Ramos cells (Homo sapiens, UniProt Q9NQC3).
T3 sequence (Q9NQC3 1-1192): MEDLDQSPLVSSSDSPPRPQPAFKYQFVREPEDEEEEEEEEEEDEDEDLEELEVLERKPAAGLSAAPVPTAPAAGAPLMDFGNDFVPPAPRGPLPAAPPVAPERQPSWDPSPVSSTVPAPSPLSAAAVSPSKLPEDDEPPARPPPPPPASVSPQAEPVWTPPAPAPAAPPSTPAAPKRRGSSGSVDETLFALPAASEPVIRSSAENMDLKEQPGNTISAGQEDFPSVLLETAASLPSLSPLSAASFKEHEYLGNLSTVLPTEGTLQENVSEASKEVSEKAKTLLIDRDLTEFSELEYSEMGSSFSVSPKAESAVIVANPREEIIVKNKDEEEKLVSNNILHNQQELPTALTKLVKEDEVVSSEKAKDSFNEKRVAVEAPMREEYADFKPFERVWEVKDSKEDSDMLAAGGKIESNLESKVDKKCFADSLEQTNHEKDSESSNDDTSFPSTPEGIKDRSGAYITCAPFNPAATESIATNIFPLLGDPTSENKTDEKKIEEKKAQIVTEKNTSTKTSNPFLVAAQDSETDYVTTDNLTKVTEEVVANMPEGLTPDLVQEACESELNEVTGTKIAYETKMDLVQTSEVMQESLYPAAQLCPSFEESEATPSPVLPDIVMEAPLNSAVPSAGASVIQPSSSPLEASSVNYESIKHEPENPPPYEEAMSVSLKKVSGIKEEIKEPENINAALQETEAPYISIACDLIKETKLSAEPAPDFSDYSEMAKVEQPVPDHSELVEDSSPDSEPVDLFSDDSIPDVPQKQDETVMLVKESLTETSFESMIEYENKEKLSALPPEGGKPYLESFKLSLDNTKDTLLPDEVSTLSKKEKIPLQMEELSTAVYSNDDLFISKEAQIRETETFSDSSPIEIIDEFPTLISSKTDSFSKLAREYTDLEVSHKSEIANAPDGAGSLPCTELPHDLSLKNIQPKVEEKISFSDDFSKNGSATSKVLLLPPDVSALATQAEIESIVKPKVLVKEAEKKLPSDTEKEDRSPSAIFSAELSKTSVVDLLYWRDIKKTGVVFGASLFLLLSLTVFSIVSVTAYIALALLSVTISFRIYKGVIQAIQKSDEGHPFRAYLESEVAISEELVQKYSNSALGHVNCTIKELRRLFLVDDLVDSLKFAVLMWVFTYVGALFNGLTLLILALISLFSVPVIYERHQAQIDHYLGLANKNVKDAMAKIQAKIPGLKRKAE

For `COc1ccc(C2CC(c3cccs3)=NN2C(=O)CCl)cc1` (centres unmarked) [compound 4], in experiment [1] (100 μM in situ 231), the “isoTOP-ABPP reactivity P42765_C92 ACAA2” value was 3.7. In addition, in experiment [2] (100 μM in situ 231), the “isoTOP-ABPP reactivity P24752_C119 ACAT1” value was 3.0, the “isoTOP-ABPP reactivity P24752_C126 ACAT1” value was 2.8, the “isoTOP-ABPP reactivity P24752_C196 ACAT1” value was found to be 3.5 and the “isoTOP-ABPP reactivity P24752_C413 ACAT1” value is given as 4.5. In addition, the “isoTOP-ABPP reactivity Q9NQC3_C1101 RTN4” value in experiment [3] (100 μM in situ 231) was determined as 20.0.
For `O=C(CCl)Nc1cccc2ncccc12` [compound 51], the “isoTOP-ABPP ratio P42765_C92” value in experiment [1] (200 μM, insitu, 231) is listed as 1.1. Further, in experiment [2] (200 μM, insitu, 231), the “isoTOP-ABPP ratio P24752_C119” value was determined as 0.7 and the “isoTOP-ABPP ratio P24752_C413” value stood at 1.1. Besides, in experiment [3] (200 μM, insitu, 231), the “isoTOP-ABPP ratio Q9NQC3_C1101” value is reported as 1.2.
`CC1CCc2ccccc2N1C(=O)CCl` (centres unmarked) [compound 45]: the “isoTOP-ABPP ratio P42765_C92” value in experiment [1] (200 μM, insitu, 231) is on record as 15.1. Also, in experiment [2] (200 μM, insitu, 231), the “isoTOP-ABPP ratio P24752_C119” value worked out at 12.4 and the “isoTOP-ABPP ratio P24752_C413” value was 20.0.
Regarding `O=C(CCl)NC(=O)NC12CC3CC(CC(C3)C1)C2` [compound 12], the “isoTOP-ABPP ratio P42765_C92” value in experiment [1] (200 μM, insitu, 231) is on record as 20.0. In addition, in experiment [2] (200 μM, insitu, 231), the “isoTOP-ABPP ratio P24752_C119” value turned out to be 4.1; the “isoTOP-ABPP ratio P24752_C413” value is 9.9; the “isoTOP-ABPP ratio, P24752_C126” value was found to be 5.8; the “isoTOP-ABPP ratio, P24752_C196” value is listed as 4.6. In experiment [3] (200 μM, insitu, 231), the “isoTOP-ABPP ratio Q9NQC3_C1101” value is 20.0.
In the case of `O=C(CCl)N1CCN(S(=O)(=O)c2ccccc2F)CC1` [compound 10], the “isoTOP-ABPP ratio P42765_C92” value in experiment [1] (200 μM, insitu, 231) was 3.7. Also, the “isoTOP-ABPP ratio P42765_C92” value in experiment [1] (200 μM, insitu, ramos) is 1.1. In experiment [2] (200 μM, insitu, 231), the “isoTOP-ABPP ratio P24752_C119” value is recorded as 4.5; the “isoTOP-ABPP ratio P24752_C413” value was determined as 7.8; the “isoTOP-ABPP ratio, P24752_C126” value was 5.9; the “isoTOP-ABPP ratio, P24752_C196” value is recorded as 5.1. Also, in experiment [2] (200 μM, insitu, ramos), the “isoTOP-ABPP ratio P24752_C119” value is on record as 1.5; the “isoTOP-ABPP ratio P24752_C413” value stood at 2.2; the “isoTOP-ABPP ratio, P24752_C196” value is given as 2.3. The “isoTOP-ABPP ratio Q9NQC3_C1101” value in experiment [3] (200 μM, insitu, 231) is given as 20.0.
As for `O=C(CCl)N1CCN(CC(=O)N2CCOCC2)CC1` [compound 29], the “isoTOP-ABPP ratio P42765_C92” value in experiment [1] (200 μM, insitu, ramos) turned out to be 0.9. In experiment [2] (200 μM, insitu, ramos), the “isoTOP-ABPP ratio P24752_C119” value is reported as 1.2; the “isoTOP-ABPP ratio P24752_C413” value is given as 1.2; the “isoTOP-ABPP ratio, P24752_C126” value is listed as 1.2; the “isoTOP-ABPP ratio, P24752_C196” value was determined as 1.1.
With `CC(C)CCOCCNC(=O)CCl` [compound 27], the “isoTOP-ABPP ratio P42765_C92” value in experiment [1] (200 μM, insitu, 231) stood at 1.2. Besides, in experiment [2] (200 μM, insitu, 231), the “isoTOP-ABPP ratio P24752_C119” value was 1.6 and the “isoTOP-ABPP ratio P24752_C413” value worked out at 1.9. Further, the “isoTOP-ABPP ratio Q9NQC3_C1101” value in experiment [3] (200 μM, insitu, 231) turned out to be 1.4.
Regarding `O=C(CCl)N1CCC(Cc2ccccc2)CC1` [compound 9], the “isoTOP-ABPP reactivity P42765_C92 ACAA2” value in experiment [1] (200 μM, insitu, 231) came to 4.3. For the same molecule, in experiment [2] (200 μM, insitu, 231), the “isoTOP-ABPP reactivity P24752_C119 ACAT1” value came out at 3.8, the “isoTOP-ABPP reactivity P24752_C126 ACAT1” value was 14.1, the “isoTOP-ABPP reactivity P24752_C196 ACAT1” value is given as 5.8 and the “isoTOP-ABPP reactivity P24752_C413 ACAT1” value was 19.5. Besides, in experiment [3] (200 μM, insitu, 231), the “isoTOP-ABPP reactivity Q9NQC3_C1101 RTN4” value is 20.0.
